Assay results as given in patent US20170190671A1, “BIS(ARYL)CATECHOL DERIVATIVES AS HERBICIDES” (E I DU PONT DE NEMOURS AND COMPANY, priority 2014, published 2017).

What was measured:
wild oat (Avenafatua) = assay: Test D preemergence; assay type: in vivo, Avena fatua; details: scale 0 to 100
From the text: Seeds of plant species selected from bluegrass (annual bluegrass, Poa annua), blackgrass (Alopecurus myosuroides), canarygrass (Phalaris minor), chickweed (common chickweed, Stellaria media), cutleaf geranium (Geranium dissectum), galium (catchweed bedstraw, Galium aparine), downy bromegrass (Bromus tectorum), field poppy (Papaver rhoeas), field violet (Viola arvensis), green foxtail (Setaria viridis), deadnettle (henbit deadnettle, Lamium amplexicaule), Italian ryegrass (Lolium multiflorum), kochia (Kochia scoparia), lambsquarters (Chenopodium album), oilseed rape (Brassica napus), pigweed (Amaranthus retroflexus), chamomile (scentless chamomile, Matricaria inodora), Russian thistle (Salsola kali), speedwell (bird's-eye speedwell, Veronica persica), spring barley (Hordeum vulgare), spring wheat (Triticum aestivum), wild buckwheat (Polygonum convolvulus), wild mustard (Sinapis arvensis), wild oat (Avenafatua), wild radish (Raphanus raphanistrum), windgrass (Apera spica-venti), winter barley (Hordeum vulgare), and winter wheat (Triticum aestivum) were planted into a silt loam soil and treated preemergence with test chemicals formulated in a non-phytotoxic solvent mixture which included a surfactant.
At the same time, these species were planted in pots containing Redi-Earth® planting medium (Scotts Company, 14111 Scottslawn Road, Marysville, Ohio 43041) comprising spaghnum peat moss, vermiculite, wetting agent and starter nutrients and treated with postemergence applications of the test chemicals formulated in the same manner. Plants ranged in height from 2 to 18 cm (1- to 4-leaf stage). Treated plants and controls were maintained in a controlled growth environment for 14 to 21 days after which time all species were compared to controls and visually evaluated. Plant response ratings, summarized in Table D, are based on a scale of 0 to 100 where 0 is no effect and 100 is complete control. A dash (-) response means no test result.

[1] = system: Brazilian crabgrass (Digitaria horizontalis); assay: Test E preemergence; assay type: in vivo; details: scale 0 to 100
Procedure, shortened: (§1)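 Preemergence: seeds in silt loam treated with compound in non-phytotoxic solvent with surfactant. Postemergence: plants at 1- to 4-leaf stage (2–18 cm) in peat-based medium sprayed likewise. Greenhouse 14–21 days, then visual rating vs controls, 0 (no effect) to 100 (complete control).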

[2] = system: field bindweed (Convolvulus arvensis); assay: Test E preemergence; assay type: in vivo; details: scale 0 to 100
Procedure, shortened: as §1

[3] = system: horseweed (Conyza canadensis); assay: Test E preemergence; assay type: in vivo; details: 31 g ai/ha, scale 0 to 100
Procedure, shortened: as §1

[4] = system: johnsongrass (Sorghum halepense); assay: Test E preemergence; assay type: in vivo; details: scale 0 to 100
Procedure, shortened: as §1

kochia (Kochia scoparia) = assay: Test E preemergence; assay type: in vivo; details: scale 0 to 100
Procedure, shortened: as §1

[5] = system: velvetleaf (Abutilon theophrasti); assay: Test E preemergence; assay type: in vivo; details: scale 0 to 100
Procedure, shortened: as §1

[6] = system: wild poinsettia (Euphorbia heterophylla); assay: Test E preemergence; assay type: in vivo; details: scale 0 to 100
Procedure, shortened: as §1

For `Fc1cccc(Oc2ncc(C(F)(F)F)cn2)c1Oc1ncc(Cl)cn1` [Compound 42, 5-chloro-2-[2-fluoro-6-[[5-(trifluoromethyl)-2-pyrimidinyl]oxy]phenoxy]pyrimidine], the “Plant response rating, Oat, Wild” value (wild oat (Avenafatua); 16 g ai/ha) was 5, the “Plant response rating, Oat, Wild” value (wild oat (Avenafatua); 31 g ai/ha) was 5 and the “Plant response rating, Oat, Wild” value (wild oat (Avenafatua); 62 g ai/ha) was 50. The “Plant response rating, Oat, Wild” value (wild oat (Avenafatua); 125 g ai/ha) was 95, the “Plant response rating, Crabgrass, Brazil” value ([1]; 16 g ai/ha) was 35 and the “Plant response rating, Crabgrass, Brazil” value ([1]; 31 g ai/ha) was 95. For the same compound, the “Plant response rating, Crabgrass, Brazil” value ([1]; 62 g ai/ha) was 100, the “Plant response rating, Crabgrass, Brazil” value ([1]; 125 g ai/ha) was 100 and the “Plant response rating, Field Bindweed” value ([2]; 16 g ai/ha) was 25. The “Plant response rating, Field Bindweed” value ([2]; 31 g ai/ha) was 20, the “Plant response rating, Field Bindweed” value ([2]; 62 g ai/ha) was 40 and the “Plant response rating, Field Bindweed” value ([2]; 125 g ai/ha) was 85. The “Plant response rating, Horseweed” value [3] was 0, the “Plant response rating, Johnsongrass” value ([4]; 16 g ai/ha) was 80 and the “Plant response rating, Johnsongrass” value ([4]; 31 g ai/ha) was 80. The “Plant response rating, Johnsongrass” value ([4]; 62 g ai/ha) was 95, the “Plant response rating, Johnsongrass” value ([4]; 125 g ai/ha) was 100 and the “Plant response rating, Kochia” value (kochia (Kochia scoparia); 16 g ai/ha) was 80. The “Plant response rating, Kochia” value (kochia (Kochia scoparia); 31 g ai/ha) was 90, the “Plant response rating, Kochia” value (kochia (Kochia scoparia); 62 g ai/ha) was 100 and the “Plant response rating, Kochia” value (kochia (Kochia scoparia); 125 g ai/ha) was 100. The “Plant response rating, Velvetleaf” value ([5]; 16 g ai/ha) was 75, the “Plant response rating, Velvetleaf” value ([5]; 31 g ai/ha) was 80 and the “Plant response rating, Velvetleaf” value ([5]; 62 g ai/ha) was 100. For the same compound, the “Plant response rating, Velvetleaf” value ([5]; 125 g ai/ha) was 100, the “Plant response rating, Poinsettia, Wild” value ([6]; 16 g ai/ha) was 20 and the “Plant response rating, Poinsettia, Wild” value ([6]; 31 g ai/ha) was 20. The “Plant response rating, Poinsettia, Wild” value ([6]; 62 g ai/ha) was 80 and the “Plant response rating, Poinsettia, Wild” value ([6]; 125 g ai/ha) was 100.
